In patent US10865188B2, “Dibenzo azepine compounds and their use in the treatment of otic diseases and disorders” (Pipeline Therapeutics, Inc., priority 2015, dated 2020):
Like-named read-outs stand apart in the source and are kept apart here.

Legend:
Atoh1 = test: Human neural stem cell assay, Atoh1 gene expression (real-time PCR); type: cell-based; settings: human neural stem cells, 7 point CRC, read-out: hNSC Atoh1 EC50
Experimental: (§1) Neural stem cells (NSC) were derived from embryonic stem cells using a published protocol (Yuan et al., Mar. 2, 2011, PLoS ONE, 6(3):e17540). Cells were sorted and characterized at passage 3 and were expanded. Cells were then frozen at passage 5. Cells were maintained in NSC media (DMEM/F12, N2 (1×), B27(1×) (Invitrogen), and Pen/Strep (1×) (Life Technologies) with 20 ng/ml bFGF (BD Bioscience/Corning)). On day 1, cells were plated in 96 well plates that have been previously coated with poly-ornithin and laminin, 60,000 cells/well in 100 μl of media. On day 2, spent media was removed, and 180 μl of fresh media was added to the cells. Later that same day (day 2), cells were treated with 20 μl of NSC media containing test compounds (7 point CRC). On day 3, spent media was removed and 140 μl of RLT/bME was added to the cells. RNA was extracted using the QiaCube (Qiagen®, Germantown, Md., USA) using the total RNA extraction+DNAse protocol. RNA was then reverse-transcribed to cDNA using iScript (Bio-Rad, Hercules, Calif., USA). cDNA was then used for real-time PCR analysis using iTaq Sybergreen (BioRad). Expression of Atoh1, Hes5, Hes1, Myosin7a genes was evaluated using CFX96 or CFX384 (Bio-Rad). HPRT1 was used as a reference gene. Analysis was done using Microsoft® Excel® and CBIS (ChemInnovation Software, Inc., San Diego, Calif., USA). […]

[1] = Guinea pig PK after transtympanic delivery (perilymph and cochlea, LC/MS/MS); type: in vivo; settings: for concentration at 1 day / concentration at 7 day / concentration at 14 day / concentration at 3 day / concentration at 21 day / concentration at 28 day: male, Hartley, other: transtympanic, 30 μL, 30 μL transtympanic; for concentration at 1 day: Day 1, LLOQ = 0.08 μM; for concentration at 7 day: Day 7, LLOQ = 0.08 μM; for concentration at 14 day: Day 14, LLOQ = 0.08 μM; for concentration at 3 day: Day 3, LLOQ = 0.08 μM; for concentration at 21 day: Day 21, LLOQ = 0.08 μM; for concentration at 28 day: Day 28, LLOQ = 0.08 μM
From the text: Male Hartley guinea pigs (300-350 g) were anesthetized with ketamine and xylazine. Thirty microliters of an aqueous pharmaceutical composition of the instant embodiments was delivered transtympanically to deposit the drug to the round window membrane. Delivery was unilateral. The animals were placed in a warm chamber in a lateral recumbent position keeping the dosed ear side up until they recover from anesthesia.
At various timepoints after administration, the animals were euthanized by CO2 inhalation. Blood and CSF were collected and stored at −80° C. The animals were decapitated, the temporal bones removed and the bulla opened to expose the otic capsule. Ipsilateral and contralateral perilymph were collected from the apex using a microcapillary tube. The ipsilateral cochlea was removed from the otic capsule and stored at −80° C. All tissues collected were analyzed using LC/MS/MS for test compound concentration as follows. Analytical standards were prepared by spiking known concentrations of the test compound stock solutions into matrices such as plasma or artificial CSF. Fixed amounts of tissues collected and spiked standards were precipitated with acetonitrile containing buspirone as an internal standard. The precipitated samples were centrifuged at 4000 g for 10 minutes at 4° C. The supernatants were analyzed using LC-MS/MS. The LC-MS/MS system was set up using the AB Sciex 4000 Qtrap (AB Sciex, Framingham, Mass.) equipped with Agilent 1200 series HPLC and CTC PAL Autosampler (Agilent Technologies, Santa Clara, Calif.).
Liquid compositions described herein were evaluated using the method described in Part E of the Biological Function section provided above. The liquid compositions prepared as described in Example 5(a)-5(d) were each drawn into a 1 mL syringe. Using the filled 1 mL syringe, the liquid composition was back-filled at 5° C. into a 100 μL Hamilton syringe adapted with 28 gauge needle. The Hamilton syringe was then allowed to warm to room temperature.
Male Hartley guinea pigs (300-350 g) were anesthetized with ketamine and xylazine. Thirty microliters of the above liquid composition were delivered transtympanically to deposit the drug to the round window membrane. The delivery was unilateral. The animals were placed in a warm chamber in a lateral recumbent position keeping the dosed ear side up until they recovered from anesthesia.
At various timepoints after administration, the animals were euthanized by CO2 inhalation. Blood and cerebrospinal fluid were collected and stored at −80° C. The animals were decapitated, the temporal bones removed and the bulla were opened to expose the otic capsule. Ipsilateral and contralateral perilymph were collected from the apex using a microcapillary tube. The ipsilateral cochlea was removed from the otic capsule and was stored at −80° C. All tissues collected were analyzed using LC/MS/MS as described in Part E of the Biological Function section above.
The concentrations of Compound I and Compound II were measured using LC/MS/MS in both the perilymph fluid and the cochlea tissue after a transtympanic injection of an instant formulation of either the crystalline form or the amorphous form at various time points. […] Concentration of the instant compounds in the perilymph and/or cochlea tissue was above the human NSC EC50 for Atoh1, an indicator that the subject compounds may be efficacious in hair cell regeneration and hearing restoration in human. […] Table 3 below lists the results for the studies using aqueous formulations of crystalline Compound I while Table 4 below lists those for aqueous formulations of crystalline Compound II. The results for aqueous formulations of crystalline Compound I are also graphically shown in FIG. 5A and FIG. 5B while the results for aqueous formulations of crystalline Compound II are graphically shown in FIG. 6A and FIG. 6B.

HES5 = test: Human neural stem cell assay, Hes5 gene expression (real-time PCR); type: cell-based; settings: human neural stem cells, 7 point CRC, read-out: hNSC HES5 IC50
Experimental: as §1

mice = test: Auditory brainstem response (ABR) hearing threshold; type: in vivo; settings: formulations of Examples 3(c) and 3(d) (2% w/v crystalline, poloxamer 407)
Experimental: Surgery was performed on naïve mice or mice with noise or pharmacologically-damaged ears. The animals were anesthetized with isoflurane and an 8 mm retroauricular incision was made to the lower caudal edge of the pinna. The skin was retracted and the fatty tissue was blunt dissected away from where the facial nerve and muscle come together. The muscle was retracted to reveal an area in the tympanic bulla where the bone was thin. A 30 g needle was used to drill a hole in the exposed thin portion of the otic bulla. A Hamilton syringe equipped with a 32 g blunt needle was inserted into the opening of the otic bulla. The drug formulation was delivered by injection and the needle removed. Wound closure was made with tissue glue.
Naïve mice or mice at various times after either noise or pharmacological deafening were anesthetized with ketamine/xylazine/acepromazine and the auditory brainstem response was determined in both ears using a Tucker Davis (Alachua, Fla.) RZ6 apparatus. The mice were exposed to clicks or pure tones of 4, 8, 16, 24 and 32 kHz at 90-10 dB in 10 dB descending steps and the hearing threshold was determined.

[2] = cochlea, Amorphous form (Example 5(b)), read-out: Cochlea Average concentration
[3] = cochlea, Crystalline form (Example 5(a)), read-out: Cochlea Average concentration
[4] = perilymph, Amorphous form (Example 5(b)), read-out: perilymph Average concentration
[5] = perilymph, Crystalline form (Example 5(a)), read-out: Perilymph Average concentration

For C[C@H](OC(=O)NCC(F)(F)C(F)(F)F)C(=O)N[C@@H]1C(=O)Nc2ccccc2-c2ccccc21 [Compound I, (2,2,3,3,3-pentafluoropropyl)-carbamic acid (S)-1-((S)-6-oxo-6,7-dihydro-5H-dibenzo[b,d]azepin-7-ylcarbamoyl) ethyl ester], the EC50 (Atoh1) was 625 nM, the “concentration in the perilymph and the cochlea compared with the human NSC EC50 for Atoh1” value ([1]; dosed as the amorphous form, transtympanic) was “above the human NSC EC50 for Atoh1 at 1 day and 7 days” and the “concentration in the perilymph and the cochlea compared with the human NSC EC50 for Atoh1” value ([1]; dosed as the crystalline form, transtympanic) was “above the NSC EC50 from day 1 to day 28”. For the same compound, the concentration at 1 day [1, 2] was 211 µM, the concentration at 7 day [1, 2] was 28.4 µM and the concentration at 14 day [1, 2] was 0.04 µM. For the same compound, the concentration at 1 day [1, 3] was 69 µM, the concentration at 3 day [1, 3] was 25.6 µM and the concentration at 7 day [1, 3] was 4.1 µM. For the same compound, the concentration at 14 day [1, 3] was 9 µM, the concentration at 21 day [1, 3] was 6.2 µM and the concentration at 28 day [1, 3] was 12.8 µM. It also gave a concentration at 1 day [1, 4] of 33.3 µM, a concentration at 7 day [1, 4] of 14 µM and a concentration at 14 day [1, 4] of 0 µM. The concentration at 1 day [1, 5] was 395 µM, the concentration at 3 day [1, 5] was 568 µM and the concentration at 7 day [1, 5] was 18.9 µM. The concentration at 14 day [1, 5] was 116 µM, the concentration at 21 day [1, 5] was 18.2 µM and the concentration at 28 day [1, 5] was 10.4 µM. For the same compound, the “exposure to the inner ear, crystalline formulation versus respective amorphous formulation” value ([1]; transtympanic, formulations of Example 5(a)-5(d)) was “longer exposure”, the IC50 (HES5) was 288 nM and the “ABR Threshold Improvement” value (mice; 16 kHz) was 7 dB. For the same compound, the “ABR Threshold Improvement” value (mice; 24 kHz) was 10 dB and the “ABR Threshold Improvement” value (mice; 32 kHz) was 8 dB.
